This is an account of results in patent US20070112076A1, “Methods and materials for treating retinopathy” (SOUTHERN ILLINOIS UNIVERSITY, priority 2005, published 2007).

The test system of experiment [1] is iNOS protein expression in human retinal endothelial cells. The experiment is described as follows: Western blot of iNOS protein expression after agonist treatment of retinal endothelial cells. It counts as cell-based. The procedure: (§1) Denaturing sample buffer (1 ml 2×GDW, 640 μl 1 M Tris-HCl, pH 6.8, 420 μl 30% glycerol, 250 μl β-mercaptoethanol, 200 μL 0.05% bromophenol blue, and 0.125 g recrystallized SDS) was added to 50 μg of protein, as determined by Bradford assay. Protein samples with sample buffer were centrifuged for 5 min to thoroughly mix the samples, followed by heat denaturation for 5 min at 100° C. Protein samples were then separated on 4-12% pre-cast tris-glycine gels (Invitrogen, Carlsbad, Calif.). Electrophoresis and immunoblotting were done as previously described (Steinle et al., J. Biol. Chem. 278 (2003) (23), pp. 20681-20686) using antibodies to iNOS (diluted 1:500, Chemicon, Temecula, Calif.) and PGE2-EP2 receptor subtype (diluted 1:500, Chemicon). Mean densitometry of immunoreactive bands was assessed using Kodak software, and results are expressed in densitometric units. A paired T-test was performed between the sympathectomized and contralateral retina with significance accepted at P<0.05.
(§2) Initial studies focused on human retinal endothelial cells, which express β-adrenergic receptors. Human microvascular retinal endothelial cells were isolated by Applied Cell Biology Research Institute and sold by Cell Systems (Kirkland, Wash.). Cells were used at passage 3-5 for all experiments. Cells were identified as endothelial cells on the basis of their cobblestone morphology. Cells were grown in attachment factor-coated Corning® dishes and in either high or low glucose media. Both high and low glucose media were identical (purchased from Cell Systems and supplemented with 20% fetal bovine serum, 100 IU/ml penicillin, 100 μg/ml streptomycin, and 0.25 μg/ml amphotericin B) except for the glucose concentration: 25 mM glucose (high glc) or 5 mM glucose (low glc). Cells were adjusted to the appropriate glucose environment for 5 days before the experiments were conducted in starvation medium. Starvation medium had the appropriate concentration of glucose and contains all of the above ingredients except that 0.2% bovine serum albumin is substituted for 20% serum.
For experiments, cells were starved for 18-24 h using starvation medium to insure that the results obtained are due to agonist stimulation, not residual effects from the serum. Following starvation, 10 μM isoproterenol (non-specific β-adrenergic receptor agonist), 10 μM xamoterol (β1-adrenergic receptor subtype agonist), or 10 μM BRL37344 (β3-adrenergic receptor subtype agonist) was placed onto dishes and allowed to act on the cells for 1, 2, or 6 h. Three dishes received no treatment and serve as not-treated controls. […] The effects of xamoterol and BRL37344 were evaluated under high glucose conditions only. […]

Experiment [2] relates to PGE2 levels in human retinal endothelial cells. The experiment in a line: PGE2 ELISA in retinal endothelial cells after agonist treatment. The following applies: low or high glucose media, 10 μM, 1, 2 or 6 h. It counts as cell-based.
Excerpt: as §2, with “An ELISA assay to measure PGE2 content in cell culture supernatants and retinal samples was purchased from Endogen (Pierce Biotechnology, Rockford, Ill.) and used according to the manufacturer's instructions. Initial” for “Initial”, “serum. […] The effects of xamoterol and BRL37344 were evaluated under high glucose conditions only.” for “serum.”
In general terms: In an ELISA, binding on a coated surface is turned into a signal by an enzyme label.

Experiment [3] relates to CREB protein expression in the retina. The experiment in a line: Western blot of CREB protein expression in retina after eye drops. The following applies: 100 μM eye drops, diabetic animals, 8 hours, compared to the normal group. In kind it is in vivo, rat. On the procedure: Three groups of animals were used for these experiments. The first group was made diabetic by a single injection of 60 mg/kg streptozotocin and allowed to remain diabetic for 2.5 month and received 4 drops of 100 μM isoproterenol placed into both eyes (STZ). The other two groups were control groups, with one group being non-diabetic but receiving the 100 μM isoproterenol eye drops (Normal), and the other group not receiving any treatment (NT). At 4, 8 and 12 hours after treatment with isoproterenol, retina from the rats was assayed for PKA by ELISA and CREB by Western blot analysis.
Western blot analysis was also done to determine protein expression of CREB. Two rats were evaluated at each time point (4 hours, 8 hours and 12 hours). Animals were sacrificed and the eyes were removed. The retina was extracted and placed into lysis buffer (50 mM Tris-HCL, pH 7.4; 1% NP-40, 0.25% Na-deoxycholate; 150 mM NaCl; 1 mM EDTA; 1 mM PMSF; 1 μg/ml each of aprotinin, leupeptin, pepstatin; 1 mM Na3VO4; 1 mM NaF; 0.1% SDS). Protein lysates were homogenized and centrifuged to generate a pellet and supernatant. […] Immunoreactive bands were detected by enhanced SuperSignal (Pierce, Rockford, Ill.) and analyzed using the Kodak 2000R image station. Mean densitometry was assessed using Kodak software, and results are expressed as a percentage of the not treated eyes. […]
For orientation: A western blot detects proteins with antibodies after separation by electrophoresis.

For experiment [4], the system named is PKA activity in the retina. The experiment is described as follows: PKA ELISA on retinal lysates after eye drops. It counts as in vivo, rat. The conditions noted are these: 4 drops of 100 μM eye drops. On the procedure:
Three groups of animals were used for these experiments. The first group was made diabetic by a single injection of 60 mg/kg streptozotocin and allowed to remain diabetic for 2.5 month and received 4 drops of 100 μM isoproterenol placed into both eyes (STZ). The other two groups were control groups, with one group being non-diabetic but receiving the 100 μM isoproterenol eye drops (Normal), and the other group not receiving any treatment (NT). At 4, 8 and 12 hours after treatment with isoproterenol, retina from the rats was assayed for PKA by ELISA and CREB by Western blot analysis. The retina of rats from each group was assayed for PKA by ELISA. Three rats were evaluated at each time point (4 hours, 8 hours and 12 hours). The PKA ELISA was carried out using the […] Protein Kinase Assay System from Upstate (Lake Placid, N.Y.). To begin the experiments, 0.1M ATP was made and set to a pH of 7.0. cAMP at a concentration of 20 μM was made with reagents purchased from Sigma Aldrich. To obtain the samples to be assayed, animals were sacrificed and the retina was removed and placed in reaction buffer supplied in the kit. One hundred microliters of each sample in reaction buffer was placed into coated wells of a 96-well plate in duplicate. […] Following application of 100 μL of stop solution to end the reaction with the substrate, the plate was read at 490 nm on a BioTek Plate Reader.

Experiment [5] deals with PGE2-EP2 receptor subtype expression in human retinal endothelial cells. The experiment is described as follows: Western blot of PGE2-EP2 receptor subtype expression in retinal endothelial cells. It counts as cell-based. The following applies: low or high glucose media, 10 μM, 1, 2 or 6 h. On the procedure:
as §1
Initial studies focused on human retinal endothelial cells, which express β-adrenergic receptors. […]
For experiments, cells were starved for 18-24 h using starvation medium to insure that the results obtained are due to agonist stimulation, not residual effects from the serum. […] The effects of xamoterol and BRL37344 were evaluated under high glucose conditions only. […]

In another experiment the test system is retina. The conditions noted are these: osmotic pump in the rat; cited from earlier work.
The mark [6] stands for this setting: high glucose medium, 10 μM, 1, 2 or 6 h, vs. NT.

Turning to `C[C@H](Cc1ccc(OCC(=O)O)cc1)NC[C@H](O)c1cccc(Cl)c1` [BRL37344], the iNOS protein expression result in experiment [1] (setting [6]) is “no effect”.

Turning to `CC(C)NCC(O)c1ccc(O)c(O)c1` (centres unmarked) [isoproterenol], the iNOS protein expression result in experiment [1] (high glucose (25 mM) medium, 10 μM, 6 h, P<0.05 vs. not treated) was “significantly reduced”; in experiment [1] (low glucose (5 mM) medium, 10 μM, 6 h, P<0.05 vs. not treated), “upregulation”. Also, the PGE2 protein levels result in experiment [2] is given as “did not affect”. The “CREB protein expression in retina” value in experiment [3] is “substantial increase”. The “PKA activity in retina” value in experiment [4] (12 hours after treatment) is given as “significantly increased at 12 hours after treatment relative to the normal, but not when compared to the not treated group”; in experiment [4] (STZ diabetic rats, 8-hour time point, P<0.05 vs. not-treated and vs. normal), “significantly increased”. Moreover, in experiment [5], the “PGE2-EP2 receptor subtype expression” value is listed as “did not affect”.

`Cc1ccc(N(CC2=NCCN2)c2cccc(O)c2)cc1` [phentolamine]: the “retinal changes as observed after sympathectomy” value in the experiment on retina is reported as “no effect”.

As for `CC(C)NCC(O)COc1cccc2ccccc12` (centres unmarked) [propranolol], the “retinal changes as observed after sympathectomy” value with retina is “can be mimicked”.

For `O=C(NCCNCC(O)COc1ccc(O)cc1)N1CCOCC1` (centres unmarked) [xamoterol], the iNOS protein expression entry in experiment [1] (setting [6]) is on record as “decreased iNOS protein expression”.
